Measurements: ChEMBL document CHEMBL1201862, “PubChem BioAssay data set” (2004)
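Dose response: 5 concentrations. Exposure: 48 h. Format: 96-well plates. Endpoint: linear interpolation; highest concentration if not reached. GI50 is the concentration that inhibits growth by half.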 Active and inactive are the calls of the source. Cut-off read from the data, not from the text of the source: active = GI50 up to about 1.1 µM and inactive = higher.

How the values were obtained:
Test in all cases: NCI-60 cell line screen, 48 h
[1] = system: NCI/ADR-RES
[2] = system: SK-MEL-2
[3] = system: NCI-H522
[4] = system: OVCAR-5
[5] = system: HOP-62
[6] = system: HT-29
[7] = system: SK-MEL-5
[8] = system: HOP-92
[9] = system: TK-10
[10] = system: A498
[11] = system: NCI-H460
[12] = system: IGROV-1
[13] = system: NCI-H23
[14] = system: HL-60
[15] = system: SN12C
[16] = system: LOX IMVI
[17] = system: SF-295
[18] = system: OVCAR-4
[19] = system: UO-31
[20] = system: OVCAR-3
[21] = system: COLO 205
[22] = system: SW-620
[23] = system: 786-0
[24] = system: Hs-578T
[25] = system: ACHN
[26] = system: SNB-19
[27] = system: SK-OV-3
[28] = system: SF-268
[29] = system: HCT-15
[30] = system: OVCAR-8
[31] = system: SK-MEL-28
[32] = system: MDA-MB-435
[33] = system: CCRF-CEM
[34] = system: Malme-3M
[35] = system: HCC 2998
[36] = system: UACC-62
[37] = system: EKVX
[38] = system: NCI-H226
[39] = system: U-251
[40] = system: MCF7
[41] = system: UACC-257
[42] = system: SF-539
[43] = system: KM12
[44] = system: SNB-75
[45] = system: K562
[46] = system: BT-549
[47] = system: HCT-116
[48] = system: CAKI-1
[49] = system: A549
[50] = system: DU-145
[51] = system: PC-3
[52] = system: MOLT-4
[53] = system: MDA-MB-231
[54] = system: MDA-N
[55] = system: T47D
[56] = system: RXF 393
[57] = system: M14
[58] = system: SR
[59] = system: RPMI-8226

COc1ccc(OC)c2c(/C=C/c3ccc(N(C)C)cc3)ccnc12
GI50 [1]: > 10 µM (inactive)
GI50 [2]: > 10 µM (inactive)
GI50 [3]: 8.02 µM (inactive)
GI50 [4]: > 10 µM (inactive)
GI50 [5]: > 10 µM (inactive)
GI50 [6]: 4.11 µM (inactive)
GI50 [7]: > 10 µM (inactive)
GI50 [8]: 5.87 µM (inactive)
GI50 [9]: 5.58 µM (inactive)
GI50 [10]: > 10 µM (inactive)
GI50 [11]: 9.68 µM (inactive)
GI50 [12]: > 10 µM (inactive)
GI50 [13]: > 10 µM (inactive)
GI50 [14]: 1.91 µM (inactive)
GI50 [15]: 8.05 µM (inactive)
GI50 [16]: 2.94 µM (inactive)
GI50 [17]: > 10 µM (inactive)
GI50 [18]: 4.32 µM (inactive)
GI50 [19]: 4.67 µM (inactive)
GI50 [20]: > 10 µM (inactive)
GI50 [21]: > 10 µM (inactive)
GI50 [22]: > 10 µM (inactive)
GI50 [23]: 4.01 µM (inactive)
GI50 [24]: 8.15 µM (inactive)
GI50 [25]: 4.68 µM (inactive)
GI50 [26]: > 10 µM (inactive)
GI50 [27]: > 10 µM (inactive)
GI50 [28]: > 10 µM (inactive)
GI50 [29]: > 10 µM
GI50 [30]: > 10 µM (inactive)
GI50 [31]: 3.3 µM (inactive)
GI50 [32]: 5.21 µM (inactive)
GI50 [33]: 2.48 µM (inactive)
GI50 [34]: 4.51 µM (inactive)
GI50 [35]: > 10 µM (inactive)
GI50 [36]: 3.01 µM (inactive)
GI50 [37]: > 10 µM (inactive)
GI50 [38]: > 10 µM (inactive)
GI50 [39]: 5.31 µM (inactive)
GI50 [40]: 3.52 µM (inactive)
GI50 [41]: 4 µM (inactive)
GI50 [42]: 2.77 µM (inactive)
GI50 [43]: > 10 µM (inactive)
GI50 [44]: 6.53 µM (inactive)
GI50 [45]: > 10 µM (inactive)
GI50 [46]: > 10 µM (inactive)
GI50 [47]: 3.53 µM (inactive)
GI50 [48]: > 10 µM (inactive)
GI50 [49]: > 10 µM (inactive)
GI50 [50]: > 10 µM (inactive)
GI50 [51]: > 10 µM (inactive)
GI50 [52]: 6.68 µM (inactive)
GI50 [53]: 8.34 µM (inactive)
GI50 [54]: 5.24 µM (inactive)
GI50 [55]: > 10 µM (inactive)
GI50 [56]: > 10 µM (inactive)
GI50 [57]: 7.36 µM (inactive)

Cc1ccc(/C=C2\Cc3cc(C)c(C)cc3C2=O)c(C(=O)O)c1
GI50 [2]: 45.6 µM (inactive)
GI50 [3]: 22.1 µM (inactive)
GI50 [5]: 33.7 µM (inactive)
GI50 [6]: 33.3 µM (inactive)
GI50 [7]: 29.1 µM (inactive)
GI50 [9]: > 100 µM (inactive)
GI50 [10]: 22.8 µM (inactive)
GI50 [11]: 33.7 µM (inactive)
GI50 [12]: 37.8 µM (inactive)
GI50 [13]: > 10 µM (inactive)
GI50 [14]: 54.3 µM (inactive)
GI50 [15]: 30.5 µM (inactive)
GI50 [16]: 31 µM (inactive)
GI50 [17]: 33.5 µM (inactive)
GI50 [19]: 29 µM (inactive)
GI50 [20]: 37.9 µM (inactive)
GI50 [22]: 34.6 µM (inactive)
GI50 [23]: 40.2 µM (inactive)
GI50 [24]: 37.9 µM (inactive)
GI50 [25]: 46.3 µM (inactive)
GI50 [26]: 30.9 µM (inactive)
GI50 [58]: 52.2 µM (inactive)
GI50 [28]: 24.3 µM (inactive)
GI50 [29]: 27.5 µM
GI50 [30]: 43.5 µM (inactive)
GI50 [31]: 52.5 µM (inactive)
GI50 [33]: 27 µM (inactive)
GI50 [34]: 42.1 µM (inactive)
GI50 [35]: 26.1 µM (inactive)
GI50 [36]: 61.7 µM (inactive)
GI50 [37]: 87.7 µM (inactive)
GI50 [38]: 19.3 µM (inactive)
GI50 [39]: 26.1 µM (inactive)
GI50 [40]: 24.7 µM (inactive)
GI50 [41]: 24.5 µM (inactive)
GI50 [42]: 13.7 µM (inactive)
GI50 [59]: 40.4 µM (inactive)
GI50 [43]: 35.8 µM (inactive)
GI50 [44]: 30.3 µM (inactive)
GI50 [45]: 44.1 µM (inactive)
GI50 [46]: 16.3 µM (inactive)
GI50 [47]: 32.1 µM (inactive)
GI50 [48]: 45.8 µM (inactive)
GI50 [49]: 30.8 µM (inactive)
GI50 [50]: 26.7 µM (inactive)
GI50 [51]: 22.3 µM (inactive)
GI50 [52]: 34.3 µM (inactive)
GI50 [53]: 28.2 µM (inactive)
GI50 [54]: 29.6 µM (inactive)
GI50 [55]: 43.3 µM (inactive)
GI50 [56]: 28.2 µM (inactive)

Cc1ccc(S(=O)(=O)NC(=O)NS(=O)(=O)O)cc1
GI50 [1]: > 100 µM (inactive)
GI50 [2]: > 100 µM (inactive)
GI50 [3]: > 100 µM (inactive)
GI50 [4]: > 100 µM (inactive)
GI50 [5]: > 100 µM (inactive)
GI50 [6]: > 100 µM (inactive)
GI50 [7]: > 100 µM (inactive)
GI50 [8]: > 100 µM (inactive)
GI50 [9]: > 100 µM (inactive)
GI50 [11]: > 100 µM (inactive)
GI50 [12]: > 100 µM (inactive)
GI50 [13]: > 100 µM (inactive)
GI50 [14]: > 100 µM (inactive)
GI50 [15]: > 100 µM (inactive)
GI50 [16]: > 100 µM (inactive)
GI50 [18]: > 100 µM (inactive)
GI50 [19]: > 100 µM (inactive)
GI50 [21]: > 100 µM (inactive)
GI50 [22]: > 100 µM (inactive)
GI50 [23]: > 100 µM (inactive)
GI50 [24]: > 100 µM (inactive)
GI50 [25]: > 100 µM (inactive)
GI50 [26]: > 100 µM (inactive)
GI50 [27]: > 100 µM (inactive)
GI50 [58]: < 0.01 µM (active)
GI50 [28]: > 100 µM (inactive)
GI50 [29]: > 100 µM
GI50 [30]: > 100 µM (inactive)
GI50 [31]: > 100 µM (inactive)
GI50 [33]: > 100 µM (inactive)
GI50 [34]: > 100 µM (inactive)
GI50 [36]: > 100 µM (inactive)
GI50 [39]: > 100 µM (inactive)
GI50 [40]: > 100 µM (inactive)
GI50 [41]: > 100 µM (inactive)
GI50 [42]: > 100 µM (inactive)
GI50 [59]: 0.0771 µM (active)
GI50 [43]: > 100 µM (inactive)
GI50 [44]: > 100 µM (inactive)
GI50 [45]: > 100 µM (inactive)
GI50 [46]: > 100 µM (inactive)
GI50 [47]: > 100 µM (inactive)
GI50 [49]: > 100 µM (inactive)
GI50 [50]: > 100 µM (inactive)
GI50 [51]: > 100 µM (inactive)
GI50 [52]: > 100 µM (inactive)
GI50 [53]: > 100 µM (inactive)
GI50 [54]: > 100 µM (inactive)
GI50 [55]: > 100 µM (inactive)
GI50 [56]: > 100 µM (inactive)
GI50 [57]: > 100 µM (inactive)
